Patent US11925672B2, “Peptide having antioxidant activity and composition containing same” (SEMPIO FOODS COMPANY, priority 2018, dated 2024)
Entries after “also recorded” stand apart in the source; their conditions may differ. Numbered stars: 1 amine (or outer) side, 2 acyl side, 3 side chain; on linkers, the order of the positions; unused ones are H or OH. Square brackets hold non-standard residues; d marks the D form. Ends that are not written are not given here. γGlu = O=C(O)[C@H](CCC(=O)[*:2])N[*:1]; Orn = NCCC[C@H](N)C(=O)O; Abu = CC[C@H](N)C(=O)O

What was measured:
Nrf2 mRNA = Nrf2 mRNA expression level by real-time PCR in Tert-BHP-treated HEK293 cells; assay type: cell-based; conditions: Tert-BHP 300 μM, peptide 500 μM, 18 hours; for effect on expression of Nrf2 mRNA: FIGS. 5A to 5C; for Nrf2 mRNA expression compared to positive control GSH: vs GSH
Procedure: In the present invention, the antioxidant activity was compared between the 100 types of peptides, and the change in Nrf2 mRNA expression was measured through PCR in order to select the final peptide.
(§1) An HEK293 cell (kidney cell) line was seeded at a density of 6.6×10^5/well in DMEM (Dulbecco's Modified Eagle's Medium) medium on a 6-well plate and cultured at 37° C. under 5% CO2 for 24 hours. The next day, the medium was exchanged with serum and amino-acid-free media, and then the cells were further cultured for 20 hours or longer. The cells were treated with Tert-BHP (300 μM) and 500 μM 100 types of peptides, and then cultured for 18 hours.
RNA was extracted from the cells treated with 100 types of peptides in (1) using TRIzol (Thermo Fisher Scientific). A GoScript™ Reverse Transcription System (Promega, Wisconsin, USA) was used to synthesize cDNA from the RNA. The cDNA was synthesized by performing annealing using 1 μg of RNA, 0.5 μg of an oligo dt primer, 0.5 μg of a random primer and RT-PCR pre-mixture at 25° C. for 5 minutes, extension at 42° C. for 60 minutes, and inactivation at 70° C. for 15 minutes.
(§2) PCR was performed using Maxime™ PCR PreMix (i-StarTaq) (Intron Biotechnology, Korea). Real-time PCR was performed using SsoAdvanced™ Universal SYBR® Green Supermix (Bio-Rad, USA). 100 ng of cDNA, 2 μM (pmol/μl) primers, 10 μl of 2X SsoAdvanced™ Universal SYBR® Green Supermix and DW were added to the PCR plate well. Then, the temperature was cyclically adjusted to 95° C. for 3 minutes, 95° C. for 10 seconds and 58° C. for 40 seconds for a total of 40 cycles. A PCR reaction was performed using a CFX96 Touch™ Real-Time PCR Detection System (Bio-Rad, California, USA), and fluorescence intensity was measured at the end of each cycle.

SOD2 mRNA = SOD2 mRNA expression level by real-time PCR in Tert-BHP-treated HEK293 cells; assay type: cell-based; conditions: Tert-BHP 300 μM, peptide 500 μM, 18 hours; for effect on SOD2 mRNA expression: FIG. 6; for SOD2 mRNA expression compared to positive control GSH: vs GSH
Procedure: The expression of SOD2 mRNA as another antioxidant factor was determined. The cell line culture, RNA extraction, cDNA synthesis and PCR experiments were performed in the same manner as in Experimental Example 5 above. A detailed description thereof is given below.
as §1, with “and” for “under”
RNA was extracted from the cells treated with 100 types of peptides in (1) using TRIzol (Thermo Fisher Scientific). A GoScript™ Reverse Transcription System (Promega, Wisconsin, USA) was used to synthesize cDNA from the RNA. The cDNA was synthesized by performing annealing with 1 μg RNA, 0.5 μg of an oligo dt primer, 0.5 μg of a random primer, and RT-PCR pre-mixture at 25° C. for 5 minutes, extension at 42° C. for 60 minutes, and inactivation at 70° C. for 15 minutes.
as §2, with “using the” for “using a”

| Substance | effect on expression of Nrf2 mRNA (Nrf2 mRNA) | effect on SOD2 mRNA expression (SOD2 mRNA) | SOD2 mRNA expression compared to positive control GSH (SOD2 mRNA) | Nrf2 mRNA expression compared to positive control GSH (Nrf2 mRNA) |
| --- | --- | --- | --- | --- |
| β-GLU-HIS | no effect | – | – | – |
| γ-GLU-ALA-GLY (Glu-Ala-Gly; not fully specified (residue 1); printed as γ-GLU-ALA-GLY) | improve the expression of Nrf2 mRNA | – | – | – |
| γ-GLU-Abu-GLY ([γGlu]-[Abu]-Gly; also: γ-peptide bond from Glu side chain carboxyl to Abu) | improve the expression of Nrf2 mRNA | increased SOD2 mRNA expression | remarkably excellent | – |
| γ-GLU-CYS(S-Me)-GLY ([γGlu]-Cys(Me)-Gly) | improve the expression of Nrf2 mRNA | – | – | – |
| γ-GLU-GLN-GLN ([γGlu]-Gln-Gln) | improve the expression of Nrf2 mRNA | increased SOD2 mRNA expression | – | – |
| γ-GLU-GLU-GLU ([γGlu]-Glu-Glu) | improve the expression of Nrf2 mRNA | – | – | – |
| γ-GLU-ILE-GLY ([γGlu]-Ile-Gly) | improve the expression of Nrf2 mRNA | increased SOD2 mRNA expression | remarkably excellent; also recorded: statistically significant activity | remarkably excellent effect; also recorded: statistically significant activity |
| γ-GLU-LEU-GLY ([γGlu]-Leu-Gly) | improve the expression of Nrf2 mRNA | – | – | – |
| γ-GLU-ORN | improve the expression of Nrf2 mRNA | – | – | comparable or superior |
| γ-GLU-PRO-GLY ([γGlu]-Pro-Gly) | improve the expression of Nrf2 mRNA | increased SOD2 mRNA expression | remarkably excellent; also recorded: statistically significant activity | remarkably excellent effect; also recorded: statistically significant activity |
| γ-GLU-SER-GLY ([γGlu]-Ser-Gly; also: gamma-glutamyl isopeptide bond (Glu side chain to Ser)) | improve the expression of Nrf2 mRNA | – | remarkably excellent; also recorded: statistically significant activity | statistically significant activity |
| γ-GLU-VAL-ALA ([γGlu]-Val-Ala; also: gamma-glutamyl isopeptide bond (Glu side chain to Val)) | improve the expression of Nrf2 mRNA | increased SOD2 mRNA expression | – | – |
| γ-GLU-VAL-ARG ([γGlu]-Val-Arg; also: gamma-glutamyl isopeptide bond (Glu side chain to Val)) | improve the expression of Nrf2 mRNA | increased SOD2 mRNA expression | remarkably excellent; also recorded: statistically significant activity | remarkably excellent effect; also recorded: statistically significant activity |
| γ-GLU-VAL-ASN ([γGlu]-Val-Asn; also: gamma-glutamyl isopeptide bond (Glu side chain to Val)) | improve the expression of Nrf2 mRNA | increased SOD2 mRNA expression | remarkably excellent; also recorded: statistically significant activity | remarkably excellent effect; also recorded: statistically significant activity |
| γ-GLU-VAL-ASP ([γGlu]-Val-Asp; also: gamma-glutamyl isopeptide bond (Glu side chain to Val)) | improve the expression of Nrf2 mRNA | increased SOD2 mRNA expression | remarkably excellent; also recorded: statistically significant activity | remarkably excellent effect; also recorded: statistically significant activity |
| γ-GLU-VAL-GLU ([γGlu]-Val-Glu; also: gamma-glutamyl isopeptide bond (Glu side chain to Val)) | improve the expression of Nrf2 mRNA | increased SOD2 mRNA expression | remarkably excellent; also recorded: statistically significant activity | remarkably excellent effect; also recorded: statistically significant activity |
| γ-GLU-VAL-GLY ([γGlu]-Val-Gly; also: gamma-glutamyl isopeptide bond (Glu side chain to Val)) | improve the expression of Nrf2 mRNA | increased SOD2 mRNA expression | remarkably excellent | – |
| γ-GLU-VAL-HIS ([γGlu]-Val-His; also: gamma-glutamyl isopeptide bond (Glu side chain to Val)) | improve the expression of Nrf2 mRNA | increased SOD2 mRNA expression | remarkably excellent | – |
| γ-GLU-VAL-LYS ([γGlu]-Val-Lys; also: gamma-glutamyl isopeptide bond (Glu side chain to Val)) | improve the expression of Nrf2 mRNA | increased SOD2 mRNA expression | – | – |
| γ-GLU-VAL-MET ([γGlu]-Val-Met; also: gamma-glutamyl isopeptide bond (Glu side chain to Val)) | improve the expression of Nrf2 mRNA | increased SOD2 mRNA expression | remarkably excellent; also recorded: statistically significant activity | remarkably excellent effect; also recorded: statistically significant activity |
| γ-GLU-VAL-ORN ([γGlu]-Val-[Orn]; also: γ-peptide bond from Glu side chain carboxyl to Val) | improve the expression of Nrf2 mRNA | increased SOD2 mRNA expression | – | – |
| γ-GLU-VAL-PHE ([γGlu]-Val-Phe; also: gamma-glutamyl isopeptide bond (Glu side chain to Val)) | improve the expression of Nrf2 mRNA | increased SOD2 mRNA expression | remarkably excellent; also recorded: statistically significant activity | remarkably excellent effect; also recorded: statistically significant activity |
| γ-GLU-VAL-PRO ([γGlu]-Val-Pro; also: gamma-glutamyl isopeptide bond (Glu side chain to Val)) | improve the expression of Nrf2 mRNA | increased SOD2 mRNA expression | – | – |
| γ-GLU-VAL-VAL ([γGlu]-Val-Val; also: gamma-glutamyl isopeptide bond (Glu side chain to Val)) | improve the expression of Nrf2 mRNA | increased SOD2 mRNA expression | – | – |
